# Data reported in ChEMBL document CHEMBL1131809, “1-[(Benzofuran-2-yl)phenylmethyl]-triazoles and -tetrazoles - potent competitive inhibitors of aromatase” (Bioorg Med Chem Lett, 1999).
# Molecular target: T1, Aromatase (Homo sapiens, UniProt P11511)
# T1 sequence (P11511 whole entry): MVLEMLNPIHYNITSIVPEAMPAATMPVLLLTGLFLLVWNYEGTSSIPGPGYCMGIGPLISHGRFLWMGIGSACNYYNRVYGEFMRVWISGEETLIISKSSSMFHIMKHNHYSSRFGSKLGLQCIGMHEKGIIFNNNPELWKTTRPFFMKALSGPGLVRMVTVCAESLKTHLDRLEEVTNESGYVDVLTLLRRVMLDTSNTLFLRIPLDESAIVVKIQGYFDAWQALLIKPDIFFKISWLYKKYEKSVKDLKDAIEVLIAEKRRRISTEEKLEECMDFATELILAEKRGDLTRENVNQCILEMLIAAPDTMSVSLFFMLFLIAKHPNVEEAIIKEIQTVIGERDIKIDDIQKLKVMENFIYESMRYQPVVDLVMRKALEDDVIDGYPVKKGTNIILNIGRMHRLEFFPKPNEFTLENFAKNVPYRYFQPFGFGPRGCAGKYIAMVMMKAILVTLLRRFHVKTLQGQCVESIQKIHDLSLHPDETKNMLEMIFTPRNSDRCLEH
# Description: Inhibition of human placental aromatase, cytochrome P450 19A1 at 20 uM
row,inhibition at 20 µM,Compound
1,67.2%,Cc1ccc(C(c2cc3ccccc3o2)n2cnnn2)cc1 (stereo not drawn)
2,14.4%,O=[N+]([O-])c1ccc2oc(C(c3ccccc3)n3cnnn3)cc2c1 (stereo not drawn)
3,85.7%,c1ccc(C(c2cc3ccccc3o2)n2cncn2)cc1 (stereo not drawn)
